Data from patent US5084479A, “Novel methods for treating neurodegenerative diseases” (priority 1990, dated 1992).
Values joined by “and” are separate entries in the source; they are usually repeats but may differ in a detail not shown here. Identical values can stand only once. Like-named read-outs stand apart in the source and are kept apart here.

How the values were obtained:
[1] = system: GABA; conditions: cited from earlier work
[2] = system: GABAB; conditions: cited from earlier work
[3] = system: seizures elicited by 4-aminobutanoic acid (GABA) synthesis or GABA receptor antagonists; conditions: mice; cited from earlier work
[4] = system: glycine modulatory site of the NMDA receptor-channel complex; format: cell-based, rat; conditions: for Effect on glycine-potentiated NMDA-induced current: gabapentin 10 μM with glycine 1 μM and strychnine 10 μM, reversed on washing; for Effect on glycine-potentiated NMDA-induced current / Effect on NMDA-induced current in the absence of glycine: acetic acid; for Effect on NMDA-induced current in the absence of glycine: gabapentin 10 μM, bath application, reversed on washing for four minutes
Experimental: Whole-cell patch clamp techniques were employed to investigate the effects of the antiepileptic drug, gabapentin, upon the responses of striatal neurons in dissociated culture to NMDA.
Striata were aseptically dissected from 16-day-old rat fetuses and mechanically triturated in enzyme-free Puck's saline (Gibco, UK). The resulting suspension was diluted to 1×10^6 cells/mL using freshly prepared medium. The medium was composed of Minimal essential medium with Earle's salts and included Fetal calf serum (5% v/v), Horse serum (5% v/v), L-Glutamine (2 mM), Insulin ([…]), and HEPES (5 mM) buffer (all Gibco, UK).
The cells were plated onto Poly-L-ornithine ([…]; Sigma) coated glass coverslips (diameter 13 mm) and incubated at 37° C. in a humidified atmosphere of 95% Air/5% CO2.
After seven days, the media was replaced with freshly prepared media containing (+)-5-fluoro-deoxyuridine (10 μM; Sigma) to inhibit the proliferation of nonneuronal elements. Cultures were subsequently fed twice weekly.
Patch electrodes with ohmic resistances of 6-10 M .OMEGA. were filled with an intracellular solution of the following composition (all mM); CsF 140.0, CaCl2 0.5, NaCl 1.0, K-EGTA 5.0 and HEPES 10.0. All recordings were made at 20°-22° C. using a List EPC7 amplifier and the resulting signal was filtered at 10 KHz. Fast and slow transient capacity compensation was employed, and cells were voltage clamped at a holding potential of -70 mV, unless otherwise stated.
Drugs were dissolved to a known concentration in the extracellular solution and were applied via the perfusion system. NMDA was applied via the perfusion system, or by rapid pressure ejection. All drugs were obtained from Sigma, except gabapentin which was synthesized at Goedecke (Warner-Lambert) Germany.

[5] = in vivo; cited from earlier work
[6] = in vivo; cited from earlier work; remark: listed apart in the source
[7] = system: neuronal GABA uptake; conditions: cited from earlier work
[8] = system: NMDA receptor-channel complex; test: Intracellular recording of NMDA-induced depolarization, paraventricular thalamus (PVT) neurones in brain slices; format: cell-based, rat; conditions: gabapentin 300 μM
Experimental: (§1) Intracellular recordings were made from neurones of either paraventricular thalamus (n =8, 7 slices) or CA1 region of the hippocampus (n =5, 5 slices) contained in […] rat brain slices. NMDA applied via the perfusion system, produced a concentration-dependent depolarization of all neurones tested. In every case but one, control response to NMDA was reduced by a concomitant application of gabapentin (300 μM). The concentration-response curves for NMDA in the presence and absence of gabapentin show a noncompetitive interaction of gabapentin with NMDA receptor-channel complex.
(§2) Coronal slices of rat brain at the level of the ventromedial hypothalamus were chosen since these contain both hippocampus and paraventricular thalamus (PVT). Slices were perfused in normal (1.3 mM magnesium) artificial cerebrospinal fluid (ACSF) at 3 mL/min. Conventional intracellular recording techniques were employed, using 1M potassium acetate-filled electrodes pulled on a Brown-Flaming microelectrode puller type P-87.
Drugs were made up as stock solutions in distilled water (NMDA 50 mM; gabapentin 100 mM) and stored frozen prior to use. The required concentrations of each drug were obtained by direct dilution with ACSF at the time of the experiment. Control dose-response curves for NMDA were obtained either in the presence or absence of tetrodotoxin (TTX). NMDA was applied to a 30-second period, with at least five minutes between successive doses. Gabapentin was added to the same NMDA-containing solutions and the dose-response curves repeated. Experiments were also performed using repeated single doses of NMDA to ensure that the effects of gabapentin were not due to rundown of the NMDA response.

[9] = system: seizures elicited by NMDA; conditions: in vivo; cited from earlier work
[10] = system: NMDA receptor-channel complex; test: Intracellular recording of NMDA-induced depolarization, CA1 hippocampal neurones in brain slices; format: cell-based, rat; conditions: gabapentin 300 μM
Experimental: as §1, §2
Drugs were made up as stock solutions in distilled water (NMDA 50 mM; gabapentin 100 mM) and stored frozen prior to use. The required concentrations of each drug were obtained by direct dilution with ACSF at the time of the experiment. Control dose-response curves for NMDA were obtained either in the presence or absence of tetrodotoxin (TTX). […]

SMILES: NCC1(CC(=O)O)CCCCC1 [gabapentin, 1-aminomethyl-cyclohexane acetic acid]
- Displacement of GABA binding [1]: does not displace
- Displacement of GABAB binding [2]: does not displace
- Protection from seizures [3]: protect mice from seizures
- Peak Inward Current (pA), relative to NMDA = 100% ([4]; Table 2, NMDA + 10 μM GABA-P, no exogenous glycine, n = 4): 305 ± 88%
- Peak Inward Current (pA), relative to NMDA = 100% ([4]; Table 2, NMDA after 'wash' of 10 μM GABA-P, n = 4): 106 ± 9%
- Peak Inward Current (pA), relative to NMDA = 100% ([4]; Table 3, 'wash' of GABA-P, NMDA + 1 μM Glycine + 10 μM Strychnine, n = 3): 257 ± 418%
- Peak Inward Current (pA), relative to NMDA = 100% ([4]; Table 3, NMDA + 1 μM Glycine + 10 μM Strychnine + 10 μM GABA-P, n = 3): 201 ± 24%
- Effect on glycine-potentiated NMDA-induced current [4]: antagonism of the glycine-induced potentiation of the NMDA-induced current
- Effect on glycine-potentiated NMDA-induced current ([4]; listed as Gabapentin): antagonism of the glycine-potentiated NMDA current
- Effect on NMDA-induced current in the absence of glycine [4]: potentiation of the NMDA-induced current
- Effect on NMDA-induced current in the absence of glycine ([4]; listed as Gabapentin): reversible potentiation of the NMDA-induced current
- Metabolism in the body [5]: not metabolized in the body
- Tolerability [6]: well tolerated
- Toxicity [6]: relatively nontoxic
- Interference with neuronal GABA uptake [7]: does not interfere with neuronal GABA uptake
- Reduction of NMDA depolarization ([8]; 100 μM NMDA for 30 s, TTX present, thalamic neurones (FIG. 5)): ~60%
- Nature of the block of the NMDA response ([8]; NMDA dose-response curves, PVT neurones (FIG. 6B)): noncompetitive
- Effect on response (depolarization) to NMDA ([8]; high (30 to 50 μM) concentrations of NMDA, PVT neurones): reduced
- Latency of onset of seizures elicited by NMDA [9]: prolong the latency of onset of seizures
- Effect on NMDA-induced depolarization ([10]; CA1 hippocampal neurones, more evident as NMDA concentration increased): reduction in the NMDA-induced depolarization
- Nature of the block of the NMDA response ([10]; NMDA dose-response curves, hippocampus (FIG. 8B)): noncompetitive

SMILES: NCC(=O)O [Glycine, reference compound]
- Effect of glycine on NMDA-induced peak current [4]: potentiation of the NMDA induced peak current
- Effect of glycine on sustained inward current produced by bath application of NMDA ([4]; NMDA 100 μM bath application, glycine 1 μM): markedly potentiated
- Peak Inward Current (pA), relative to NMDA = 100% ([4]; striatal neurons): 589 ± 156% and 713 ± 260%
